Data from PubChem BioAssay (NCI).
Several values for one entry are separate records, joined by “and”; a condition that tells them apart may be missing. Equal entries are not always repeated.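 Dose response: 5 concentrations. Exposure: 48 h. Format: 96-well plates. Endpoint: linear interpolation; highest concentration if not reached. GI50 marks 50% less growth. Definition used: TGI = concentration required for complete inhibition of growth.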

How the values were obtained:
Experiment in all cases: NCI anticancer screen, dose series, 48 h
SF-539 CNS = system: SF-539 CNS
M14 melanoma = system: M14 melanoma
SN12C renal = system: SN12C renal
HOP-92 NSCLC = system: HOP-92 NSCLC
UACC-62 melanoma = system: UACC-62 melanoma
CAKI-1 renal = system: CAKI-1 renal
T-47D breast = system: T-47D breast
NCI-H23 lung = system: NCI-H23 lung
UACC-257 melanoma = system: UACC-257 melanoma
NCI-H460 lung = system: NCI-H460 lung
OVCAR-4 ovarian = system: OVCAR-4 ovarian
MOLT-4 leukemia = system: MOLT-4 leukemia
MALME-3M melanoma = system: MALME-3M melanoma
HT29 colon = system: HT29 colon

| SMILES | TGI (SF-539 CNS) | TGI (M14 melanoma) | TGI (SN12C renal) | TGI (HOP-92 NSCLC) | TGI (UACC-62 melanoma) | TGI (CAKI-1 renal) | TGI (T-47D breast) | TGI (NCI-H23 lung) | TGI (UACC-257 melanoma) | TGI (NCI-H460 lung) | TGI (OVCAR-4 ovarian) | TGI (MOLT-4 leukemia) | TGI (MALME-3M melanoma) | TGI (HT29 colon) | GI50 (M14 melanoma) | GI50 (T-47D breast) |
| --- | --- | --- | --- | --- | --- | --- | --- | --- | --- | --- | --- | --- | --- | --- | --- | --- |
| C=CC[C@H]1[C@H](O[Si](C)(C)C(C)(C)C)C=CC(=O)[C@@H]1CC(=O)OCC | 30.8 µM | 25.3 µM | 29.9 µM | 24.2 µM | 24.1 µM | 25.1 µM | 24.7 µM | 33.6 µM | 17.9 µM | 27.6 µM | 25.2 µM | 48 µM | 25.9 µM | 21.2 µM |  |  |
| Oc1ccc(Cn2c(-c3ccc(O)cc3)nc3ccccc32)cc1 | > 100 µM | > 100 µM | > 100 µM | > 100 µM | > 100 µM | > 100 µM | > 100 µM | > 100 µM | > 100 µM | > 100 µM | > 100 µM | > 100 µM | > 100 µM | > 100 µM |  |  |
| Cc1nc(Nc2nc3ccccc3[nH]2)[nH]c(=O)c1CCO | > 65.3 µM | 98.9 µM | > 100 µM | > 100 µM | > 100 µM | > 100 µM | > 100 µM | > 100 µM | > 100 µM | > 100 µM | > 100 µM | > 100 µM | > 71.5 µM | > 100 µM |  |  |
| C(=N/NC1=NCCN1)/c1c2ccccc2c(/C=N\NC2=NCCN2)c2ccccc12 | 0.345 µM and 0.857 µM and 0.402 µM | 0.568 µM and 0.697 µM | 0.545 µM and 1.72 µM and 1.94 µM | 0.547 µM and 0.967 µM and 0.34 µM | 0.274 µM and 0.425 µM and 0.242 µM | 2.78 µM and 5.02 µM and 6.65 µM | 0.939 µM and 4.13 µM | 0.647 µM and 1.4 µM and 1.03 µM | 0.393 µM and 0.902 µM and 0.801 µM | 0.335 µM and 0.33 µM and 0.159 µM | 0.4 µM and 0.584 µM and 1.1 µM |  | 0.259 µM and 0.564 µM and 0.477 µM | 1.36 µM and 1.41 µM and 2.04 µM | 0.25 µM | 0.174 µM |
| C[N+]12CCCCC1C(CN1C(=O)c3ccccc3C1=O)CCC2 (stereo not given) | > 100 µM | > 100 µM | > 100 µM | > 100 µM | > 100 µM | > 100 µM | > 100 µM | > 100 µM | > 100 µM | > 100 µM | > 100 µM | > 100 µM | > 100 µM | > 100 µM |  |  |
| N#CCN(Cc1ccccc1)[C@@H]1CCC[C@]1(O)C#Cc1ccc2c(c1)OCO2 | 42.3 µM | 32 µM |  | 27 µM | 37.3 µM | 77.4 µM | 69.5 µM | 42 µM | 37.9 µM | 36.1 µM | 31.2 µM | 57.1 µM | 34.3 µM | 36.1 µM |  |  |
| C=CCC1C2CCC(O[Si](C(C)C)(C(C)C)C(C)C)(C(C(=O)OC)C2)C1O (stereo not given) | > 100 µM | > 100 µM | > 100 µM | > 100 µM | > 100 µM | > 100 µM | > 100 µM | > 100 µM | > 100 µM | > 100 µM | > 100 µM | > 100 µM |  | > 100 µM |  |  |
| CC/C=C/C(/C=C/C[C@]1(CC)C[C@H](CC)[C@H](CC(=O)O)OO1)CC (stereo not given in full) | 4.07 µM | 26.5 µM | 14.7 µM | 4.72 µM | 12.1 µM | 4.82 µM | > 23.1 µM | 6.04 µM | 28.9 µM | 4.25 µM | 3 µM |  | 29.3 µM | 3.98 µM |  |  |
| O=C(O)CCc1nc2cc3ccccc3cc2[nH]c1=O | > 100 µM | > 100 µM | > 100 µM | > 100 µM | > 100 µM | > 100 µM | > 100 µM | > 100 µM | > 100 µM | > 100 µM | > 100 µM | > 100 µM |  | > 100 µM |  |  |
| CC1=C(C(=O)NC(C)(C)C)CC(C(=O)NC(C)(C)C)C(C)N1 (stereo not given) | > 100 µM | > 100 µM | > 100 µM | > 100 µM | > 100 µM | > 100 µM | > 100 µM | > 100 µM | > 100 µM | > 100 µM | > 100 µM | > 100 µM |  | > 100 µM |  |  |
| CC(C)(CN)SCc1ccccc1 | > 100 µM | > 100 µM | > 100 µM | > 100 µM | > 100 µM | > 100 µM | > 100 µM |  | > 100 µM | > 100 µM | > 100 µM | > 100 µM | > 100 µM | > 100 µM |  |  |
| CSc1nc(-c2ccc(Cl)cc2)c(C#N)c(=O)[nH]1 | > 100 µM | > 100 µM | > 100 µM | 97.7 µM | > 100 µM | > 100 µM | > 100 µM | > 100 µM | > 100 µM | > 100 µM | > 100 µM | > 100 µM |  | > 100 µM |  |  |
| COC(=O)CCC(C)[C@H]1CCC2C3C(C[C@H](OC(C)=O)[C@@]21C)[C@@]1(C)CCC2(C[C@H]1C[C@H]3OC(C)=O)OOC1(CCCCC1)OO2 (stereo not given in full) | > 100 µM | > 100 µM | > 100 µM | 26.5 µM |  | > 100 µM | > 100 µM | > 100 µM | > 100 µM | > 100 µM | 50.9 µM | > 100 µM | 97.4 µM | > 100 µM |  |  |
